Results: patent publication US20100099561A1, “HETEROBICYCLIC ALKYLTHIO-BRIDGED ISOXAZOLINES” (E.I. DU PONT DE NEMOURS AND COMPANY, priority 2008, published 2010)

Legend:
Format in all cases: in vivo
[1] = test system: barnyardgrass (Echinochloa crus-galli); test: Test A preemergence, barnyardgrass; settings: 0 to 100 scale (0 no effect, 100 complete control)
How it was run: (§1)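 Pre: directed soil spray after sowing in loam/sand. Post: seedlings at 1–2 leaf stage, 2–10 cm. Vehicle: non-phytotoxic solvent mix + surfactant. Greenhouse ~10 d; visual injury 0–100 vs untreated controls.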

[2] = test system: large crabgrass (Digitaria sanguinalis); test: Test A preemergence, large crabgrass; settings: 0 to 100 scale (0 no effect, 100 complete control)
How it was run: as §1

[3] = test system: giant foxtail (Setaria faberi); test: Test A preemergence, giant foxtail; settings: 0 to 100 scale (0 no effect, 100 complete control)
How it was run: as §1

[4] = test system: morningglory (Ipomoea spp.); test: Test A preemergence, morningglory; settings: 0 to 100 scale (0 no effect, 100 complete control)
How it was run: as §1

[5] = test system: pigweed (Amaranthus retroflexus); test: Test A preemergence, pigweed; settings: 0 to 100 scale (0 no effect, 100 complete control)
How it was run: as §1

[6] = test system: velvetleaf (Abutilon theophrasti); test: Test A preemergence, velvetleaf; settings: 0 to 100 scale (0 no effect, 100 complete control)
How it was run: as §1

[7] = test system: wheat (Triticum aestivum); test: Test A preemergence, wheat; settings: 0 to 100 scale (0 no effect, 100 complete control)
How it was run: as §1

[8] = test system: corn (Zea mays); test: Test A preemergence, corn; settings: 0 to 100 scale (0 no effect, 100 complete control)
How it was run: as §1

[9] = test system: barnyardgrass (Echinochloa crus-galli); test: Test A postemergence, barnyardgrass; settings: 0 to 100 scale (0 no effect, 100 complete control)
How it was run: as §1

[10] = test system: large crabgrass (Digitaria sanguinalis); test: Test A postemergence, large crabgrass; settings: 0 to 100 scale (0 no effect, 100 complete control)
How it was run: as §1

[11] = test system: giant foxtail (Setaria faberi); test: Test A postemergence, giant foxtail; settings: 0 to 100 scale (0 no effect, 100 complete control)
How it was run: as §1

[12] = test system: morningglory (Ipomoea spp.); test: Test A postemergence, morningglory; settings: 0 to 100 scale (0 no effect, 100 complete control)
How it was run: as §1

[13] = test system: pigweed (Amaranthus retroflexus); test: Test A postemergence, pigweed; settings: 0 to 100 scale (0 no effect, 100 complete control)
How it was run: as §1

[14] = test system: velvetleaf (Abutilon theophrasti); test: Test A postemergence, velvetleaf; settings: 0 to 100 scale (0 no effect, 100 complete control)
How it was run: as §1

[15] = test system: wheat (Triticum aestivum); test: Test A postemergence, wheat; settings: 0 to 100 scale (0 no effect, 100 complete control)
How it was run: as §1

[16] = test system: corn (Zea mays); test: Test A postemergence, corn; settings: 0 to 100 scale (0 no effect, 100 complete control)
How it was run: as §1

[17] = test system: rice (Oryza sativa); test: Test B flooded paddy test, rice; settings: Flood, scale 0 to 100
How it was run: (§2)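 Compounds were added directly to paddy water over 2-leaf-stage plants in pots flooded 3 cm above soil, water depth maintained. Visual injury scored against controls after 13 to 15 days in greenhouse, 0 (none) to 100 (complete control); dash indicates no result.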

[18] = test system: umbrella sedge (Cyperus difformis); test: Test B flooded paddy test, umbrella sedge; settings: Flood, scale 0 to 100
How it was run: as §2

[19] = test system: ducksalad (Heteranthera limosa); test: Test B flooded paddy test, ducksalad; settings: Flood, scale 0 to 100
How it was run: as §2

[20] = test system: barnyardgrass (Echinochloa crus-galli); test: Test B flooded paddy test, barnyardgrass; settings: Flood
How it was run: as §2

CC1(C)CC(S(=O)(=O)Cc2c(C(F)(F)Cl)nc3n(c2=O)CCCC3)=NO1 [Compound 30]
70: Plant response rating, Pigweed ([5]; 125 g ai/ha)
90: Plant response rating, Crabgrass, Large ([2]; 125 g ai/ha) | Plant response rating, Foxtail, Giant ([3]; 125 g ai/ha)
20: Plant response rating, Velvetleaf ([14]; 125 g ai/ha)
40: Plant response rating, Morningglory ([4]; 500 g ai/ha) | Plant response rating, Velvetleaf ([6]; 125 g ai/ha)
50: Plant response rating, Barnyardgrass ([1]; 125 g ai/ha) | Plant response rating, Wheat ([7]; 500 g ai/ha) | Plant response rating, Morningglory ([12]; 500 g ai/ha) | Plant response rating, Pigweed ([13]; 125 g ai/ha) | Plant response rating, Velvetleaf ([14]; 500 g ai/ha) | Plant response rating, Wheat ([15]; 500 g ai/ha)
10: Plant response rating, Morningglory ([12]; 125 g ai/ha)
0: Plant response rating, Wheat ([7]; 125 g ai/ha) | Plant response rating, Corn ([8]; 125 g ai/ha) | Plant response rating, Corn ([8]; 500 g ai/ha) | Plant response rating, Wheat ([15]; 125 g ai/ha) | Plant response rating, Corn ([16]; 125 g ai/ha) | Plant response rating, Corn ([16]; 500 g ai/ha) | Plant response rating, Rice ([17]; 31 g ai/ha) | Plant response rating, Rice ([17]; 125 g ai/ha) | Plant response rating, Sedge, Umbrella ([18]; 31 g ai/ha) | Plant response rating, Sedge, Umbrella ([18]; 125 g ai/ha) | Plant response rating, Ducksalad ([19]; 31 g ai/ha) | Plant response rating, Ducksalad ([19]; 125 g ai/ha) | Plant response rating, Barnyardgrass ([20]; 31 g ai/ha, scale 0 to 100) | Plant response rating, Barnyardgrass ([20]; 125 g ai/ha, scale 0 to 100)
60: Plant response rating, Velvetleaf ([6]; 500 g ai/ha) | Plant response rating, Barnyardgrass ([9]; 125 g ai/ha) | Plant response rating, Crabgrass, Large ([10]; 125 g ai/ha) | Plant response rating, Foxtail, Giant ([11]; 125 g ai/ha) | Plant response rating, Pigweed ([13]; 500 g ai/ha)
30: Plant response rating, Morningglory ([4]; 125 g ai/ha)
100: Plant response rating, Barnyardgrass ([1]; 500 g ai/ha) | Plant response rating, Crabgrass, Large ([2]; 500 g ai/ha) | Plant response rating, Foxtail, Giant ([3]; 500 g ai/ha) | Plant response rating, Pigweed ([5]; 500 g ai/ha)
80: Plant response rating, Barnyardgrass ([9]; 500 g ai/ha) | Plant response rating, Crabgrass, Large ([10]; 500 g ai/ha) | Plant response rating, Foxtail, Giant ([11]; 500 g ai/ha)

CC1(C)CC([S+]([O-])Cc2c(C(F)(F)F)nc3cccnn3c2=O)=NO1 (stereo not shown) [Compound 46]
20: Plant response rating, Velvetleaf ([6]; 500 g ai/ha)
0: Plant response rating, Barnyardgrass ([1]; 125 g ai/ha) | Plant response rating, Barnyardgrass ([1]; 500 g ai/ha) | Plant response rating, Crabgrass, Large ([2]; 125 g ai/ha) | Plant response rating, Crabgrass, Large ([2]; 500 g ai/ha) | Plant response rating, Foxtail, Giant ([3]; 125 g ai/ha) | Plant response rating, Foxtail, Giant ([3]; 500 g ai/ha) | Plant response rating, Morningglory ([4]; 125 g ai/ha) | Plant response rating, Morningglory ([4]; 500 g ai/ha) | Plant response rating, Pigweed ([5]; 125 g ai/ha) | Plant response rating, Pigweed ([5]; 500 g ai/ha) | Plant response rating, Velvetleaf ([6]; 125 g ai/ha) | Plant response rating, Wheat ([7]; 125 g ai/ha) | Plant response rating, Wheat ([7]; 500 g ai/ha) | Plant response rating, Corn ([8]; 125 g ai/ha) | Plant response rating, Corn ([8]; 500 g ai/ha) | Plant response rating, Barnyardgrass ([9]; 125 g ai/ha) | Plant response rating, Barnyardgrass ([9]; 500 g ai/ha) | Plant response rating, Crabgrass, Large ([10]; 125 g ai/ha) | Plant response rating, Crabgrass, Large ([10]; 500 g ai/ha) | Plant response rating, Foxtail, Giant ([11]; 125 g ai/ha) | Plant response rating, Foxtail, Giant ([11]; 500 g ai/ha) | Plant response rating, Morningglory ([12]; 125 g ai/ha) | Plant response rating, Morningglory ([12]; 500 g ai/ha) | Plant response rating, Pigweed ([13]; 125 g ai/ha) | Plant response rating, Pigweed ([13]; 500 g ai/ha) | Plant response rating, Velvetleaf ([14]; 125 g ai/ha) | Plant response rating, Velvetleaf ([14]; 500 g ai/ha) | Plant response rating, Wheat ([15]; 125 g ai/ha) | Plant response rating, Wheat ([15]; 500 g ai/ha) | Plant response rating, Corn ([16]; 125 g ai/ha) | Plant response rating, Corn ([16]; 500 g ai/ha) | Plant response rating, Rice ([17]; 31 g ai/ha) | Plant response rating, Rice ([17]; 62 g ai/ha) | Plant response rating, Rice ([17]; 125 g ai/ha) | Plant response rating, Rice ([17]; 250 g ai/ha) | Plant response rating, Sedge, Umbrella ([18]; 31 g ai/ha) | Plant response rating, Sedge, Umbrella ([18]; 62 g ai/ha) | Plant response rating, Sedge, Umbrella ([18]; 125 g ai/ha) | Plant response rating, Sedge, Umbrella ([18]; 250 g ai/ha) | Plant response rating, Ducksalad ([19]; 31 g ai/ha) | Plant response rating, Ducksalad ([19]; 62 g ai/ha) | Plant response rating, Ducksalad ([19]; 125 g ai/ha) | Plant response rating, Ducksalad ([19]; 250 g ai/ha) | Plant response rating, Barnyardgrass ([20]; 31 g ai/ha, scale 0 to 100) | Plant response rating, Barnyardgrass ([20]; 62 g ai/ha, scale 0 to 100) | Plant response rating, Barnyardgrass ([20]; 125 g ai/ha, scale 0 to 100) | Plant response rating, Barnyardgrass ([20]; 250 g ai/ha, scale 0 to 100 (0 no effect, 100 complete control))
